One experiment concerns HIV-IIIb (MT-4 cells). In words: Test A: Antiviral Assays in MT4 Cells. The class given is cell-based. Particulars: MT4, 120 h, MT-4 cells infected with HIV-IIIb, 5 days of incubation, CellTiter-Glo readout. As to the method:
The antiviral properties of a compound disclosed herein may be determined using Test A described below.
Test A: Antiviral Assays in MT4 Cells
For the antiviral assay utilizing MT-4 cells, 0.4 μL of […] test concentration of 3-fold serially diluted compound in DMSO was added to 40 μL of cell growth medium (RPMI 1640, 10% FBS, 1% penicillin/Streptomycin, 1% L-Glutamine, 1% HEPES) in each well of 384-well assay plates (10 concentrations) in quadruplicate.
1 mL aliquots of 2×10e6 MT-4 cells are pre-infected for 1 and 3 hrs respectively, @ 37° C. with 25 μL (MT4) or of either cell growth medium (mock-infected) or a fresh 1:250 dilution of an HIV-IIIb concentrated ABI stock (0.004 m.o.i. for MT4 cells). Infected and uninfected cells are diluted in cell growth medium and 35 μL of 2000 (for MT4) cells is added to each well of the assay plates.
Assay plates were then incubated in a 37° C. incubator. After 5 days of incubation, […] 2× concentrated CellTiter-Glo™ Reagent (catalog #G7573, Promega Biosciences, Inc., Madison, Wis.) was added to each well of the assay plate. Cell lysis was carried out by incubating at room temperature for 2-3 min and then chemiluminescence was read using the Envision reader (PerkinElmer).
On the technique in general: In ATP-based viability assays light output follows the ATP content of the culture.
Regarding `Cc1cc2c(ccc(=O)n2CC2CC2)c(-c2ccc3c4c(ccnc24)CCO3)c1[C@H](OC(C)(C)C)C(=O)O` (atropisomer, axis not shown) [Example 1, (S)-2-tert-Butoxy-2-((R)-1-(cyclopropylmethyl)-5-(2,3-dihydropyrano[4,3,2-de]quinolin-7-yl)-7-methyl-2-oxo-1,2-dihydroquinolin-6-yl)acetic acid], a half-maximal response (EC50) required 409 nM.

For `Cc1cc2c(ccc(=O)n2Cc2ccc(C(F)(F)F)cc2)c(-c2ccc3c4c(ccnc24)CCO3)c1[C@H](OC(C)(C)C)C(=O)O` (atropisomer, axis not shown) [Example 11, (S)-2-tert-Butoxy-2-((R)-5-(2,3-dihydropyrano[4,3,2-de]quinolin-7-yl)-7-methyl-2-oxo-1-(4-(trifluoromethyl)benzyl)-1,2-dihydroquinolin-6-yl)acetic acid], the half-maximal effective concentration (EC50) – broadly, the concentration giving half of the maximal effect – was found to be 983 nM.

For the molecule `Cc1cc2c(ccc3cnnn32)c(-c2ccc3c4c(ccnc24)CCO3)c1[C@H](OC(C)(C)C)C(=O)O` (atropisomer, axis not shown) [Example 55, (S)-2-tert-butoxy-2-((R)-6-(2,3-dihydropyrano[4,3,2-de]quinolin-7-yl)-8-methyl-[1,2,3]triazolo[1,5-a]quinolin-7-yl)acetic acid], the response was half-maximal at 78.4 nM (EC50). Turning to `Cc1cc2c(ccc(=O)n2Cc2cccc(OC(F)(F)F)c2)c(-c2ccc3c4c(ccnc24)CCO3)c1[C@H](OC(C)(C)C)C(=O)O` (atropisomer, axis not shown) [Example 18, (S)-2-tert-Butoxy-2-((R)-5-(2,3-dihydropyrano[4,3,2-de]quinolin-7-yl)-7-methyl-2-oxo-1-(3-(trifluoromethoxy)benzyl)-1,2-dihydroquinolin-6-yl)acetic acid], a half-maximal response (EC50) required 185 nM. `Cc1cc2c(ccc(=O)n2Cc2cc(C(F)(F)F)cc(C(F)(F)F)c2)c(-c2ccc3c4c(ccnc24)CCO3)c1[C@H](OC(C)(C)C)C(=O)O` (atropisomer, axis not shown) [Example 20, (S)-2-((R)-1-(3,5-Bis(trifluoromethyl)benzyl)-5-(2,3-dihydropyrano[4,3,2-de]quinolin-7-yl)-7-methyl-2-oxo-1,2-dihydroquinolin-6-yl)-2-tert-butoxyacetic acid] displayed an EC50 of 90 nM. Still for that read-out and setting: the result for `Cc1cc2c(ccc(=O)n2Cc2cccc(S(C)(=O)=O)c2)c(-c2ccc(Cl)cc2)c1[C@H](OC(C)(C)C)C(=O)O` [Example 6, (S)-2-tert-Butoxy-2-(5-(4-chlorophenyl)-7-methyl-1-(3-(methylsulfonyl)benzyl)-2-oxo-1,2-dihydroquinolin-6-yl)acetic acid] reads 290 nM. On to `Cc1cc2c(ccc(=O)n2Cc2cnccn2)c(-c2ccc3c4c(ccnc24)CCO3)c1[C@H](OC(C)(C)C)C(=O)O` (atropisomer, axis not shown) [Example 23, (S)-2-tert-Butoxy-2-((R)-5-(2,3-dihydropyrano[4,3,2-de]quinolin-7-yl)-7-methyl-2-oxo-1-(pyrazin-2-ylmethyl)-1,2-dihydroquinolin-6-yl)acetic acid], for which the EC50 was determined as 383 nM. In turn, `COc1cccc(Cn2c(=O)ccc3c(-c4ccc5c6c(ccnc46)CCO5)c([C@H](OC(C)(C)C)C(=O)O)c(C)cc32)c1` (atropisomer, axis not shown) [Example 26, (S)-2-tert-butoxy-2-((R)-5-(2,3-dihydropyrano[4,3,2-de]quinolin-7-yl)-1-(3-methoxybenzyl)-7-methyl-2-oxo-1,2-dihydroquinolin-6-yl)acetic acid] returned an EC50 of 99.3 nM.

For the molecule `Cc1cc2c(ccc(=O)n2Cc2ccncc2)c(-c2ccc3c4c(ccnc24)CCO3)c1[C@H](OC(C)(C)C)C(=O)O` (atropisomer, axis not shown) [Example 21, (S)-2-tert-Butoxy-2-((R)-5-(2,3-dihydropyrano[4,3,2-de]quinolin-7-yl)-7-methyl-2-oxo-1-(pyridin-4-ylmethyl)-1,2-dihydroquinolin-6-yl)acetic acid], the midpoint of the response, the EC50, lay at 755 nM. The same measure, in the same setting: with `Cc1cc2nc(C(C)(F)F)ccc2c(-c2ccc3c4c(ccnc24)CCO3)c1[C@H](OC(C)(C)C)C(=O)O` (atropisomer, axis not shown) [Example 52, (S)-2-tert-Butoxy-2-((R)-2-(1,1-difluoroethyl)-5-(2,3-dihydropyrano[4,3,2-de]quinolin-7-yl)-7-methylquinolin-6-yl)acetic acid] the figure was 65.1 nM; with `Cc1cc2c(ccc(=O)n2Cc2ccc3c(cnn3C)c2)c(-c2ccc3c4c(ccnc24)CCO3)c1[C@H](OC(C)(C)C)C(=O)O` (atropisomer, axis not shown) [Example 29, (S)-2-tert-Butoxy-2-((R)-5-(2,3-dihydropyrano[4,3,2-de]quinolin-7-yl)-7-methyl-1-((1-methyl-1H-indazol-5-yl)methyl)-2-oxo-1,2-dihydroquinolin-6-yl)acetic acid], 85.5 nM; with `Cc1cc2nc(OCc3ccc(C(N)=O)cc3)ccc2c(-c2ccc3c4c(ccnc24)CCO3)c1[C@H](OC(C)(C)C)C(=O)O` (atropisomer, axis not shown) [Example 8, (S)-2-tert-Butoxy-2-((R)-2-(4-carbamoylbenzyloxy)-5-(2,3-dihydropyrano[4,3,2-de]quinolin-7-yl)-7-methylquinolin-6-yl)acetic acid], 36.8 nM. On the same count and under the same terms, with `Cc1cc2nc(OCc3ccc(S(C)(=O)=O)cc3)ccc2c(-c2ccc3c4c(ccnc24)CCO3)c1[C@H](OC(C)(C)C)C(=O)O` (atropisomer, axis not shown) [Example 9, (S)-2-tert-Butoxy-2-((R)-5-(2,3-dihydropyrano[4,3,2-de]quinolin-7-yl)-7-methyl-2-(4-(methylsulfonyl)benzyloxy)quinolin-6-yl)acetic acid] the figure was 21.2 nM. On the same count and under the same terms, with `Cc1cc2nc(OCc3ccccc3OC(F)(F)F)ccc2c(-c2ccc3c4c(ccnc24)CCO3)c1[C@H](OC(C)(C)C)C(=O)O` (atropisomer, axis not shown) [Example 19, (S)-2-tert-Butoxy-2-((R)-5-(2,3-dihydropyrano[4,3,2-de]quinolin-7-yl)-7-methyl-2-(2-(trifluoromethoxy)benzyloxy)quinolin-6-yl)acetic acid] the figure was 70 nM. In turn, `Cc1cc2nc(C(C)(C)O)ccc2c(-c2ccc3c4c(ccnc24)CCO3)c1[C@H](OC(C)(C)C)C(=O)O` (atropisomer, axis not shown) [Example 51, (S)-2-tert-Butoxy-2-((R)-5-(2,3-dihydropyrano[4,3,2-de]quinolin-7-yl)-2-(2-hydroxypropan-2-yl)-7-methylquinolin-6-yl)acetic acid] displayed a 50% effective concentration (EC50) of 186 nM. The molecule `Cc1cc2nc(OCc3ccccc3)ccc2c(-c2ccc3c4c(ccnc24)CCO3)c1[C@H](OC(C)(C)C)C(=O)O` (atropisomer, axis not shown) [Example 12, (S)-2-((R)-2-(Benzyloxy)-5-(2,3-dihydropyrano[4,3,2-de]quinolin-7-yl)-7-methylquinolin-6-yl)-2-tert-butoxyacetic acid] came in with an EC50 of 50 nM.

`Cc1cc2nc(C(C)F)ccc2c(-c2ccc3c4c(ccnc24)CCO3)c1[C@H](OC(C)(C)C)C(=O)O` (stereo partly drawn) [Example 53, (2S)-2-tert-Butoxy-2-((5R)-5-(2,3-dihydropyrano[4,3,2-de]quinolin-7-yl)-2-(1-fluoroethyl)-7-methylquinolin-6-yl)acetic acid] came in with an EC50 of 22.1 nM. Still for that read-out and setting: the result for `CCCCCC(C)(C)O[C@H](C(=O)O)c1c(C)cc2nc(C)ccc2c1-c1ccc2c3c(ccnc13)CCO2` (atropisomer, axis not shown) [Example 43, (S)-2-((S)-5-(2,3-Dihydropyrano[4,3,2-de]quinolin-7-yl)-2,7-dimethylquinolin-6-yl)-2-(2-methylheptan-2-yloxy)acetic acid] reads 39400 nM; that for `Cc1cc2c(ccc(=O)n2Cc2cccc(C(F)(F)F)c2)c(-c2ccc(Cl)cc2)c1[C@H](OC(C)(C)C)C(=O)O` [Example 7, (S)-2-tert-Butoxy-2-(5-(4-chlorophenyl)-7-methyl-2-oxo-1-(3-(trifluoromethyl)benzyl)-1,2-dihydroquinolin-6-yl)acetic acid], 187 nM.

The experiment is the same for the next values; noted with them: MT-4 cells infected with HIV-IIIb, 5 days of incubation, CellTiter-Glo readout.
The molecule `CCCC(C)(C)O[C@H](C(=O)O)c1c(C)cc2nc(C)ccc2c1-c1ccc2c3c(ccnc13)CCO2` (atropisomer, axis not shown) [Example 39, (2S)-2-((R)-5-(2,3-Dihydropyrano[4,3,2-de]quinolin-7-yl)-2,7-dimethylquinolin-6-yl)-2-(2-methylpentan-2-yloxy)acetic acid] registered an EC50 of 12.3 nM. Consider `CCC(C)(C)O[C@H](C(=O)O)c1c(C)cc2nc(C)ccc2c1-c1ccc2c3c(ccnc13)CCO2` (atropisomer, axis not shown) [Example 45, (S)-2-((S)-5-(2,3-Dihydropyrano[4,3,2-de]quinolin-7-yl)-2,7-dimethylquinolin-6-yl)-2-(tert-pentyloxy)acetic acid], for which the EC50 amounted to 13200 nM. On the same count and under the same terms, with `CCCC(C)(C)O[C@H](C(=O)O)c1c(C)cc2nc(C)ccc2c1-c1ccc2c3c(ccnc13)CCO2` (atropisomer, axis not shown) [Example 40, (2S)-2-((S)-5-(2,3-Dihydropyrano[4,3,2-de]quinolin-7-yl)-2,7-dimethylquinolin-6-yl)-2-(2-methylpentan-2-yloxy)acetic acid] the figure was 2760 nM.

Values taken from patent publication US9376392B2, “2-(tert-butoxy)-2-(7-methylquinolin-6-yl) acetic acid derivatives for treating AIDS” (Gilead Sciences, Inc., priority 2012, dated 2016).
